For 18 compounds, IC50 and Ki results are on record in US7517882B2, “Protein kinase inhibitors” (Polaris Group, priority 2006, dated 2009).

One assay deals with PC-3 cells. The assay can be described thus: Inhibition of cell growth (MTT), PC-3 cells. The note with it: Homo sapiens, PC-3, 120 h, read-out: IC50 PC-3.
Another assay has as its target T1, human CK2 (Homo sapiens, UniProt P68400).
T1 construct: Full Length His-tagged Human CK2 was cloned, expressed, and purified; His tag; made in house; host or cells: E. coli
Nature of the assay: CK2 protein kinase inhibition assay (spectrophotometric PK/LDH coupled assay). In kind it is biochemical. Here is the method:
CK2 protein kinase activity was measured through use of a spectrophotometric PK/LDH coupled assay to detect ATP turnover. Full Length His-tagged Human CK2 was cloned, expressed, and purified from an E. coli expression system. The peptide substrate for CK2 phosphorylation was […] (Genscript Corporation, Piscataway, N.J., USA). […] Prior to the addition of ATP to initiate the phosphorylation reaction, CK2 enzyme was pre-incubated with inhibitors and other assay components for 5 min. Progress of the reaction was continuously monitored by the change in UV/Vis absorbance at 340 nm. […] In the case of very potent binding, tight-binding methods were employed to determine Ki.

The next assay deals with HCT-116 cells. Nature of the assay: Inhibition of cell growth (MTT), HCT-116 cells. The following applies: Homo sapiens, HCT-116, 120 h, read-out: IC50 HCT 116 cells.

T1 sequence (P68400 whole entry): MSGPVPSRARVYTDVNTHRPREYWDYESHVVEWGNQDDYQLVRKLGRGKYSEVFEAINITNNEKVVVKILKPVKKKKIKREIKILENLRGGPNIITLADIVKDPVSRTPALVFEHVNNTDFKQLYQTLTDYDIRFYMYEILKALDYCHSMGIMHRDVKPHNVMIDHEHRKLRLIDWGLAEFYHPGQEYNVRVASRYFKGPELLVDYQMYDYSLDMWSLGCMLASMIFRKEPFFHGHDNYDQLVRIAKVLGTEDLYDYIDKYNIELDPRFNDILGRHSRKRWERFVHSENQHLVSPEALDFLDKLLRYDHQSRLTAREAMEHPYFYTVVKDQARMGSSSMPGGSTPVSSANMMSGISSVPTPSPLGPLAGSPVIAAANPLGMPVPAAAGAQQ
Method for HCT-116 cells: (§1) HCT-116 and PC-3 cells were cultured at 37° C. with 5% CO2 and in 10% fetal bovine serum with McCoy's 5A modified medium and F-12 K medium respectively. Cells were plated on 96 well plates at a density of 2,000-4,000/well in the volume of 100 μL medium. […] The control wells contained 1% dimethylsulfoxide only in their medium. After further incubation of three to five days to allow cells grow before the control cells reach confluence, 15 μL/well MTT reagent (5 mg/mL) were added and incubated for 4 h. After the incubation, the medium was removed and the newly generated formazan solubilized with dimethylsulfoxide (100 μL/well) and measured at 540 nm. The absorption data were fit into equation and calculated for IC50 values through use of the program KaleidaGraph (Synergy Software). The fitting equation for IC50 is y=a+b/(1+(x/IC50)); x is the compound concentration, a is the background absorption at 540 nm, and b is the absorption at zero compound concentration.
Method for PC-3 cells: as §1

As for `CCN(CC)C1CCN(C(=O)c2cccc(Nc3nc4nc5c(cnn35)CCCCC(=O)Nc3cccc(c3)N4)c2)C1` (centres unmarked) [Compound 11p, (11,14)3,5N-{[(3-{[3-(diethylamino)pyrrolidin-1-yl]carbonyl}phenyl)amino]-pyrazolo[1,5-a][1,3,5]triazin-4-yl-amino}-(2N,4N)-phenyl-1,5-diaza-cyclotetradeca-8-one], the IC50 in the assay with PC-3 cells and in the assay with HCT-116 cells was below 1 µM throughout. Besides, on human CK2, the Ki – broadly, a measure of affinity in units of concentration, obtained from inhibition or displacement – is below 0.1 µM.

With `CCOc1cccc(Nc2nc3nc4c(cnn24)CCCCC(=O)Nc2cccc(c2)N3)c1` [Compound 11e, (11,14)3,5N-{(3-ethoxyphenyl)-pyrazolo[1,5-a][1,3,5]triazin-4-yl-amino}-(2N,4N)-phenyl-1,5-diaza-cyclotetradeca-8-one], the IC50 in the assay with PC-3 cells and in the assay with HCT-116 cells was below 1 µM each time. On human CK2, the Ki was below 0.1 µM.

With `CCN(CC)C1CN(C(=O)c2cccc(Nc3nc4nc5c(cnn35)CCCCC(=O)Nc3cccc(c3)N4)c2)C1` [Compound 11q, (11,14)3,5N-{[(3-{[3-(diethylamino)azetidin-1-yl]carbonyl}-phenyl)amino]-pyrazolo[1,5-a][1,3,5]triazin-4-yl-amino}-(2N,4N)-phenyl-1,5-diaza-cyclotetradeca-8-one], the IC50 in the assay on PC-3 cells and in the assay on HCT-116 cells was below 1 µM in each case. The compound also gave a Ki on human CK2 below 0.1 µM.

As to `O=C1CCCCc2cnn3c(NC4CC4)nc(nc23)Nc2cccc(c2)N1` [Compound 11a, (11,14)3,5N-{cyclopropyl-pyrazolo[1,5-a][1,3,5]triazin-4-ylamino}-(2N,4N)-phenyl-1,5-diaza-cyclotetradeca-8-one], the IC50 with PC-3 cells and in the assay with HCT-116 cells was below 1 µM each time.

Turning to `CN1CCC(N(C)C(=O)c2cccc(Nc3nc4nc5c(cnn35)CCCCC(=O)Nc3cccc(c3)N4)c2)C1` (centres unmarked) [Compound 11g, (11,14)3,5N-{3-(3-{[methyl(1-methylpyrrolidin-3-yl)amino]carbonyl}phenyl)-pyrazolo[1,5-a][1,3,5]triazin-4-yl-amino}-(2N,4N)-phenyl-1,5-diaza-cyclotetradeca-8-one], the IC50 in the assay with PC-3 cells and with HCT-116 cells was below 1 µM throughout. On human CK2, this compound registered a Ki below 0.1 µM.

`O=C1CCCCc2cnn3c(NC4CC4)cc(nc23)Nc2cccc(c2)N1` [Compound 18b]: the IC50 in the assay on PC-3 cells and in the assay on HCT-116 cells was below 3 µM each time. Besides, the Ki at human CK2 is below 0.1 µM.

Take `CN(C)C1CCN(C(=O)c2cccc(Nc3nc4nc5c(cnn35)CCCCC(=O)Nc3cccc(c3)N4)c2)C1` (centres unmarked) [Compound 11i]: the IC50 in the assay on PC-3 cells and with HCT-116 cells was below 1 µM throughout. The compound further yielded a Ki at human CK2 below 0.1 µM.

For `O=C1CCCCc2cnn3c(Nc4cccc(C(=O)N5CCNCC5)c4)nc(nc23)Nc2cccc(c2)N1` [Compound 11r, (11,14)3,5N-{{[3-(piperazin-1-ylcarbonyl)phenyl]amino}-pyrazolo[1,5-a][1,3,5]triazin-4-yl-amino}-(2N,4N)-phenyl-1,5-diaza-cyclotetradeca-8-one], the Ki on human CK2 is below 0.1 µM. The IC50 (in general, the concentration that gives 50% inhibition) in the assay on HCT-116 cells is below 1 µM.

As for `CN1CC(NC(=O)c2cccc(Nc3nc4nc5c(cnn35)CCCCC(=O)Nc3cccc(c3)N4)c2)C1` [Compound 11m], the IC50 with PC-3 cells and in the assay on HCT-116 cells was below 1 µM each time. On human CK2, this compound gave a Ki below 0.1 µM.

In the case of `CN(C)CCN(C)C(=O)c1cccc(Nc2nc3nc4c(cnn24)CCCCC(=O)Nc2cccc(c2)N3)c1` [Compound 11n, (11,14)3,5N-{4-[(3-{[[2-(dimethylamino)ethyl](methyl)-amino]carbonyl}phenyl)amino]-pyrazolo[1,5-a][1,3,5]triazin-4-yl-amino}-(2N,4N)-phenyl-1,5-diaza-cyclotetradeca-8-one], the IC50 with PC-3 cells and in the assay with HCT-116 cells was below 1 µM each time. Besides, on human CK2, the Ki is below 0.1 µM.

In turn, `CCN(CC)CCN(C)C(=O)c1cccc(Nc2nc3nc4c(cnn24)CCCCC(=O)Nc2cccc(c2)N3)c1` [Compound 11s] showed a Ki at human CK2 below 0.1 µM. In the assay with HCT-116 cells, the IC50 was below 1 µM.

Take `CN1CCN(C(=O)c2cccc(Nc3nc4nc5c(cnn35)CCCCC(=O)Nc3cccc(c3)N4)c2)CC1` [Compound 11h, (11,14)3,5N-{3-(4-methylpiperazin-1-ylcarbonyl)phenyl-pyrazolo[1,5-a][1,3,5]triazin-4-yl-amino}-(2N,4N)-phenyl-1,5-diaza-cyclotetradeca-8-one]: the IC50 in the assay on PC-3 cells and with HCT-116 cells was below 1 µM throughout. For the same compound, the Ki at human CK2 was below 0.1 µM.

Take `O=C1CCCCc2cnn3c(Nc4cccnc4)nc(nc23)Nc2cccc(c2)N1` [Compound 11d, (11,14)3,5N-{pyrid-3-yl-pyrazolo[1,5-a][1,3,5]triazin-4-yl-amino}-(2N,4N)-phenyl-1,5-diaza-cyclotetradeca-8-one]: the IC50 in the assay with PC-3 cells and with HCT-116 cells was below 1 µM in each case. The compound further showed a Ki on human CK2 below 0.1 µM.

In the case of `CN(C)CCNC(=O)c1cccc(Nc2nc3nc4c(cnn24)CCCCC(=O)Nc2cccc(c2)N3)c1` [Compound 11k, (11,14)3,5N-{4-{[3-({[2-(dimethylamino)ethyl]-amino}carbonyl)phenyl]amino}-pyrazolo[1,5-a][1,3,5]triazin-4-yl-amino}-(2N,4N)-phenyl-1,5-diaza-cyclotetradeca-8-one], the IC50 in the assay with PC-3 cells and in the assay with HCT-116 cells was below 1 µM each time. Besides, the Ki on human CK2 was below 0.1 µM.

On to `O=C1CCCCc2cnn3c(Nc4cccc(C(=O)N5CC(O)C5)c4)nc(nc23)Nc2cccc(c2)N1` [Compound 11l, (11,14)3,5N-{4-({3-[(3-hydroxyazetidin-1-yl)carbonyl]phenyl}amino)-pyrazolo[1,5-a][1,3,5]triazin-4-yl-amino}-(2N,4N)-phenyl-1,5-diaza-cyclotetradeca-8-one], for which the IC50 in the assay with PC-3 cells and in the assay on HCT-116 cells was below 1 µM throughout. Also, the Ki at human CK2 is below 0.1 µM.

In the case of `CCN(CC)C(=O)c1cccc(Nc2nc3nc4c(cnn24)CCCCC(=O)Nc2cccc(c2)N3)c1` [Compound 11j, (11,14)3,5N-{4-[(3-{3-(diethylamino)carbonyl}phenyl)amino]-pyrazolo[1,5-a][1,3,5]triazin-4-yl-amino}-(2N,4N)-phenyl-1,5-diaza-cyclotetradeca-8-one], the IC50 with PC-3 cells and in the assay on HCT-116 cells was below 1 µM each time. The Ki at human CK2 is below 0.1 µM.

In the case of `CN(C)C1CCN(C(=O)c2cccc(Nc3cc4nc5c(cnn35)CCCCC(=O)Nc3cccc(c3)N4)c2)C1` (centres unmarked) [Compound 18a, (11,14)3,5N-{[(3-Dimethylamino-pyrrolidine-1-carbonyl)-phen-3-yl]-pyrazolo[1,5-a]pyrimidin-2,4-yl-diamino}-(2N,4N)-phenyl-1,5-diaza-cyclotetradecan-6-one], the IC50 in the assay on PC-3 cells and in the assay with HCT-116 cells was below 3 µM in each case. Besides, the Ki on human CK2 is below 0.1 µM.

In turn, `CN1CCC(N(C)C(=O)c2cccc(Nc3nc4nc5c(cnn35)CCCCC(=O)Nc3cccc(c3)N4)c2)CC1` [Compound 11o, (11,14)3,5N-{4-[(3-{[methyl(1-methylpiperidin-4-yl)amino]carbonyl}-phenyl)amino]-pyrazolo[1,5-a][1,3,5]triazin-4-yl-amino}-(2N,4N)-phenyl-1,5-diaza-cyclotetradeca-8-one] registered a Ki on human CK2 below 0.1 µM. Moreover, the IC50 in the assay with HCT-116 cells is below 1 µM.
